What was measured:
Assay in all cases: Eurofins kinase profiling
Assay type in all cases: biochemical
B-Raf(V599E)(h) = target: T1, B-Raf(V599E)(h) (Homo sapiens, UniProt P15056, V600E); settings: read-out: residual kinase activity B-Raf(V599E)(h)
T1 construct: purchased Eurofins KinaseProfiler
How it was run: (§1)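 At a fixed 1 µM, the compound was profiled against each kinase, whose activity was quantified through radiolabeled phosphate incorporation.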

CDK1/cyclinB(h) = target: T2, CDK1/cyclinB(h) (Homo sapiens, UniProt P06493); settings: read-out: residual kinase activity CDK1/cyclinB(h)
T2 construct: purchased Eurofins KinaseProfiler
How it was run: as §1

CHK1(h) = target: T3, CHK1(h) (Homo sapiens, UniProt O14757); settings: read-out: residual kinase activity CHK1(h)
T3 construct: purchased Eurofins KinaseProfiler
T3 sequence (O14757 1-476): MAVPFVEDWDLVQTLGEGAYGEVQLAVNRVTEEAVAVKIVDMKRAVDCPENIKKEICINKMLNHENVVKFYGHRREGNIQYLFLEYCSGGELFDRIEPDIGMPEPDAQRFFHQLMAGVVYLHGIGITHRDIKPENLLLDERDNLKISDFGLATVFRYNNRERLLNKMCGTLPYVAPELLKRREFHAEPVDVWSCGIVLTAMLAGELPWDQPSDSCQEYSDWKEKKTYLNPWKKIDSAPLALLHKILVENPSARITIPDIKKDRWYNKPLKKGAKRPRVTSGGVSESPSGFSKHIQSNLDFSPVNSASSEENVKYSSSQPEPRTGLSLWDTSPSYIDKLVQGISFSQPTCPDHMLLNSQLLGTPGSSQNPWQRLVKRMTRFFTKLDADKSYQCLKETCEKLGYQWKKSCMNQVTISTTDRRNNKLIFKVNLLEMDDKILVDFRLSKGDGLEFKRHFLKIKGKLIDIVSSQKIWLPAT
How it was run: as §1

CK1γ3(h) = target: T4, CK1γ3(h) (Homo sapiens, UniProt Q9Y6M4); settings: read-out: residual kinase activity CK1γ3(h)
T4 construct: purchased Eurofins KinaseProfiler
How it was run: as §1

EGFR(L861Q)(h) = target: T5, EGFR(L861Q)(h) (Homo sapiens, UniProt P00533, L861Q); settings: read-out: residual kinase activity EGFR(L861Q)(h)
T5 construct: purchased Eurofins KinaseProfiler
How it was run: as §1

EGFR(h) = target: T6, EGFR(h) (Homo sapiens, UniProt P00533); settings: read-out: residual kinase activity EGFR(h)
T6 construct: purchased Eurofins KinaseProfiler
How it was run: as §1

EphA7(h) = target: T7, EphA7(h) (Homo sapiens, UniProt Q15375); settings: read-out: residual kinase activity EphA7(h)
T7 construct: purchased Eurofins KinaseProfiler
How it was run: as §1

FGFR1(h) = target: T8, FGFR1(h) (Homo sapiens, UniProt P11362); settings: read-out: residual kinase activity FGFR1(h)
T8 construct: purchased Eurofins KinaseProfiler
How it was run: as §1

Fes(h) = target: T9, Fes(h) (Homo sapiens, UniProt P07332); settings: read-out: residual kinase activity Fes(h)
T9 construct: purchased Eurofins KinaseProfiler
How it was run: as §1

IGF-1R(h) = target: T10, IGF-1R(h) (Homo sapiens, UniProt P08069); settings: read-out: residual kinase activity IGF-1R(h)
T10 construct: purchased Eurofins KinaseProfiler
How it was run: as §1

MELK(h) = target: T11, MELK(h) (Homo sapiens, UniProt Q14680); settings: read-out: residual kinase activity MELK(h)
T11 construct: purchased Eurofins KinaseProfiler
How it was run: as §1

Mer(h) = target: T12, Mer(h) (Homo sapiens, UniProt Q12866); settings: read-out: residual kinase activity Mer(h)
T12 construct: purchased Eurofins KinaseProfiler
T12 sequence (Q12866 21-999): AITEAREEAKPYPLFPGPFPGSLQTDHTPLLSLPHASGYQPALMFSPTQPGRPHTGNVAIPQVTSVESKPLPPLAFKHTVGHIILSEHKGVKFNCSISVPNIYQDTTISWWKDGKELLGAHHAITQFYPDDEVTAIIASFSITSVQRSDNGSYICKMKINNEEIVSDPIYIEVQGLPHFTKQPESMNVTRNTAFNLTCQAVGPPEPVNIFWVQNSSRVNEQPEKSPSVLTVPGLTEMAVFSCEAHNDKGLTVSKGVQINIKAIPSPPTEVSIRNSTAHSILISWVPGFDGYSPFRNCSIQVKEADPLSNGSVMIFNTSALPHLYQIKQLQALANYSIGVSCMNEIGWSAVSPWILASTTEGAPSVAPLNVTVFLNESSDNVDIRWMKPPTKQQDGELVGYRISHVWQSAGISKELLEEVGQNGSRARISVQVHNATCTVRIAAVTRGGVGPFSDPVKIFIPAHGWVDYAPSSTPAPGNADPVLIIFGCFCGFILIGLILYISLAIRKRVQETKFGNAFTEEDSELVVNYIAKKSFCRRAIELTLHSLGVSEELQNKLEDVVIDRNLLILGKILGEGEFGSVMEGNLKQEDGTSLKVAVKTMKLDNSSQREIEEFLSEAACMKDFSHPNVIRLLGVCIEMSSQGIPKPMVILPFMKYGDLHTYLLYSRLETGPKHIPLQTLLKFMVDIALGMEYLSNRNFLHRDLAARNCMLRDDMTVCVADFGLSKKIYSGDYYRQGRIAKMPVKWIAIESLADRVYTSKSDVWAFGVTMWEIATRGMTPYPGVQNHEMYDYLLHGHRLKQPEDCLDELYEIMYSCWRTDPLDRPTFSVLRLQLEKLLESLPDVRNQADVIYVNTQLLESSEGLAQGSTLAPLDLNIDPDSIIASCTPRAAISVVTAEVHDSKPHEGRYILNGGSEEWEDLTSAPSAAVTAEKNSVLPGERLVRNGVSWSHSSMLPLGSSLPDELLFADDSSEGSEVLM
How it was run: as §1

Yes(h) = target: T13, Yes(h) (Homo sapiens, UniProt P07947); settings: read-out: residual kinase activity Yes(h)
T13 construct: purchased Eurofins KinaseProfiler
How it was run: as §1

ZIPK(h) = target: T14, ZIPK(h) (Homo sapiens, UniProt O43293); settings: read-out: residual kinase activity ZIPK(h)
T14 construct: purchased Eurofins KinaseProfiler
How it was run: as §1

T8 sequence (P11362 22-822): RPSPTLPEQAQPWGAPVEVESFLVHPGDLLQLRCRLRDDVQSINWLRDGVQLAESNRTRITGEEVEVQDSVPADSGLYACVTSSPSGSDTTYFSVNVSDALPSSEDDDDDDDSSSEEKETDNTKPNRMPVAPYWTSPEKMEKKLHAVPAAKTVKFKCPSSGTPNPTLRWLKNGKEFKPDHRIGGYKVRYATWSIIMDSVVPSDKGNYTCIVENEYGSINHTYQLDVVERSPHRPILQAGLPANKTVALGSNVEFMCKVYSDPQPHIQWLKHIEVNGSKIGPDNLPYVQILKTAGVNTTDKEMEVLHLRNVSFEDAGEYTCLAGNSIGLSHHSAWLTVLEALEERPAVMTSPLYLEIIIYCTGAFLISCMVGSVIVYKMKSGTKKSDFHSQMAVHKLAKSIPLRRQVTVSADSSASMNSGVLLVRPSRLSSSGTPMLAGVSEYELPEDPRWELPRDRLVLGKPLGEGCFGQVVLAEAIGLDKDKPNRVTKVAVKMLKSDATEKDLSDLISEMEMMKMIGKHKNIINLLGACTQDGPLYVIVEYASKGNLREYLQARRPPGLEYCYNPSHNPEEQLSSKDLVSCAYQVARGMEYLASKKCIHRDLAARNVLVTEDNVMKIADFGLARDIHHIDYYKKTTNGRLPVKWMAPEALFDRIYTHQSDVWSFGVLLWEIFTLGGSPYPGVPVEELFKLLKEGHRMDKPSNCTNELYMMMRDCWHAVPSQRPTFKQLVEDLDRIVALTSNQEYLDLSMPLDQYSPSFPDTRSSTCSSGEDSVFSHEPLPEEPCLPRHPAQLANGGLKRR
T9 sequence (P07332 whole entry): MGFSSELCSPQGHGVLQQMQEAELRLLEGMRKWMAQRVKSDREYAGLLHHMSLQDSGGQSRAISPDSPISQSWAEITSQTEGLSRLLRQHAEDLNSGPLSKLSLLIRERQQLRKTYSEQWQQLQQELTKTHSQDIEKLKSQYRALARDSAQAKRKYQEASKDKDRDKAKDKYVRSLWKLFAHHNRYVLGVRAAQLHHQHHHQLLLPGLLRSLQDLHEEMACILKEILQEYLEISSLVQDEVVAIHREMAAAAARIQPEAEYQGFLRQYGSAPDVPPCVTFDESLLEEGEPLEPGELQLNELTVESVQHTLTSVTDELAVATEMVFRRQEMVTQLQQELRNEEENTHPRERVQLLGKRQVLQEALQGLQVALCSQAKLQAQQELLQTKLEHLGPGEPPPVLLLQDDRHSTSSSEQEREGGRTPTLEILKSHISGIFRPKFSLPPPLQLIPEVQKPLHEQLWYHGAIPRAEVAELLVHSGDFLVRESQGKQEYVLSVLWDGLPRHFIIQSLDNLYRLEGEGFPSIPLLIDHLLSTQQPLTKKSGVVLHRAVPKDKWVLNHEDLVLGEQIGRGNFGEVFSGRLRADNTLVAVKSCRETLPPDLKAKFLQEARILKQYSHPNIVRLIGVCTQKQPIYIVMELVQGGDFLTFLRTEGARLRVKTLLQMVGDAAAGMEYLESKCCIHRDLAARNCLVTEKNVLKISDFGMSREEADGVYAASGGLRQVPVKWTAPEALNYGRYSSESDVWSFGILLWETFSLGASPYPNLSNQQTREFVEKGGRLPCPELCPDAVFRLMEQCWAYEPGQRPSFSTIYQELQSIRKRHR
T10 sequence (P08069 31-1367): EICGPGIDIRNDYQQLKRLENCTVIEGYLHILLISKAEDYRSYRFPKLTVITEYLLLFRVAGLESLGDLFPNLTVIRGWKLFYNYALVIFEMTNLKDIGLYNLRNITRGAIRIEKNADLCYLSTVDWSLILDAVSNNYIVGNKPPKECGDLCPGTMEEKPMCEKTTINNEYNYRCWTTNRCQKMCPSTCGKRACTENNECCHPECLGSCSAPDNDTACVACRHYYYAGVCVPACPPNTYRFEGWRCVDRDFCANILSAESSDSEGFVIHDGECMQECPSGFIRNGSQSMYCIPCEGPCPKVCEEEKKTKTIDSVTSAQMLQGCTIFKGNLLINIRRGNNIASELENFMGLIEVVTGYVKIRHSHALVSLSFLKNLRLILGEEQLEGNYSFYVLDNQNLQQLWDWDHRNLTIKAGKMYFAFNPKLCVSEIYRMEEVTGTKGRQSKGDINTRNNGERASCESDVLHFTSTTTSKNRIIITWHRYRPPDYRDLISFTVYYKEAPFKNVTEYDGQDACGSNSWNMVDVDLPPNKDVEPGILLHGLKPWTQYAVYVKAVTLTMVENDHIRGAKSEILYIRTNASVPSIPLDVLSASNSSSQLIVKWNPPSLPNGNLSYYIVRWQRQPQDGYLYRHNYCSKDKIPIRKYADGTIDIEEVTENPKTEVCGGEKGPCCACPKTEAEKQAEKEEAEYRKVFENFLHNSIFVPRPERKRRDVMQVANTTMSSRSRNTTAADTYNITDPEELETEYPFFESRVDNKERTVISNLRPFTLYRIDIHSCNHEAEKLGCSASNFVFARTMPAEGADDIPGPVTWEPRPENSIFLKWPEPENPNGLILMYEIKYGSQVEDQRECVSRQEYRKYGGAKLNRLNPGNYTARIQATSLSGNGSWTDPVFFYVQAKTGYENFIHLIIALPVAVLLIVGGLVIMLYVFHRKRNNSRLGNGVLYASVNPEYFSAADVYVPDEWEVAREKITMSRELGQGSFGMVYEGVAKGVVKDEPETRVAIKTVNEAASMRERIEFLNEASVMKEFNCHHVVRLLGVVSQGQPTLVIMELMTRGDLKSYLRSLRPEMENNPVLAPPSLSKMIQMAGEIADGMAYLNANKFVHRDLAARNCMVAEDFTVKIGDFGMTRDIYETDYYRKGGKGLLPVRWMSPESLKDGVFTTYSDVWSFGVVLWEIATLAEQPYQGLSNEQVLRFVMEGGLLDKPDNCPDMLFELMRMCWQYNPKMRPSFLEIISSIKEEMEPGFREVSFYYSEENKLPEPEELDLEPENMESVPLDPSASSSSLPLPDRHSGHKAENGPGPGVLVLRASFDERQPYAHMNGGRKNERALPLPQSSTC
T1 sequence (P15056 417-766 V600E limits assumed): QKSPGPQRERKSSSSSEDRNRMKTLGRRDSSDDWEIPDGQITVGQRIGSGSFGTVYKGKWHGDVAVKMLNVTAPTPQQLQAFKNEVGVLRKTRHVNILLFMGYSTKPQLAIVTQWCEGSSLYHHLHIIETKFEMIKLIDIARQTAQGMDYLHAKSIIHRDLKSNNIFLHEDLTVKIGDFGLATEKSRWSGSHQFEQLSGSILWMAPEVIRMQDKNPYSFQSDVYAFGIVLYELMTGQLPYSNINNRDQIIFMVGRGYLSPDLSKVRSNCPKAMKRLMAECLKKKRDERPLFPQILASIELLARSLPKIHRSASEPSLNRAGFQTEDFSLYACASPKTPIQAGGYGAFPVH
T4 sequence (Q9Y6M4 whole entry): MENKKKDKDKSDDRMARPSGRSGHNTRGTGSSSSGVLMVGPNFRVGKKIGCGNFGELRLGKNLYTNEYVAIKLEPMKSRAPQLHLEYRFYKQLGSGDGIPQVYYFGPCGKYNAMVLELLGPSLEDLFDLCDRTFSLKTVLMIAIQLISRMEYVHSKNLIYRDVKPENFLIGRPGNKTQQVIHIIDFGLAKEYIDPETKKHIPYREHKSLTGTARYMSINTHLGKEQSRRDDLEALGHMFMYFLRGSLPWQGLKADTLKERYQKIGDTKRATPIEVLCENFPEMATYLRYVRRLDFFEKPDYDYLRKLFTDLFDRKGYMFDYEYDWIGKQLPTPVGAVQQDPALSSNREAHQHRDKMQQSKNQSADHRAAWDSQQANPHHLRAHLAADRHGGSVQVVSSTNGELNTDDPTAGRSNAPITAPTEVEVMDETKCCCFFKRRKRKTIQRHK
T11 sequence (Q14680 whole entry): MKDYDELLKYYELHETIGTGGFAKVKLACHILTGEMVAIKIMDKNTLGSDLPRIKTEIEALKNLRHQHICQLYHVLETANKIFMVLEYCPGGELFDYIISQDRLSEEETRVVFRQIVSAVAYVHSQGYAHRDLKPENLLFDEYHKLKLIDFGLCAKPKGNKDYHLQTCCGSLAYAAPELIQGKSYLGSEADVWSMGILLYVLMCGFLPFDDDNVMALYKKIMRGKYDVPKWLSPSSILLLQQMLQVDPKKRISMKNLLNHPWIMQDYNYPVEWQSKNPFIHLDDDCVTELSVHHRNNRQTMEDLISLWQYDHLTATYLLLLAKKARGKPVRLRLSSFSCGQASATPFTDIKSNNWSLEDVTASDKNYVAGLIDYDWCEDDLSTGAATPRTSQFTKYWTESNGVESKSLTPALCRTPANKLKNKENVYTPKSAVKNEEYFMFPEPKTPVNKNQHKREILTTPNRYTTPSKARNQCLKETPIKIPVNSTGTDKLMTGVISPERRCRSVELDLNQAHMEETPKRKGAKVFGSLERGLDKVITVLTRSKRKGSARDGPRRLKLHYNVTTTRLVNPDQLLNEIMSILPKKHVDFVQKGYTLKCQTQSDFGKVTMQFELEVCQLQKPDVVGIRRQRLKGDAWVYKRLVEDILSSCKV
T14 sequence (O43293 whole entry): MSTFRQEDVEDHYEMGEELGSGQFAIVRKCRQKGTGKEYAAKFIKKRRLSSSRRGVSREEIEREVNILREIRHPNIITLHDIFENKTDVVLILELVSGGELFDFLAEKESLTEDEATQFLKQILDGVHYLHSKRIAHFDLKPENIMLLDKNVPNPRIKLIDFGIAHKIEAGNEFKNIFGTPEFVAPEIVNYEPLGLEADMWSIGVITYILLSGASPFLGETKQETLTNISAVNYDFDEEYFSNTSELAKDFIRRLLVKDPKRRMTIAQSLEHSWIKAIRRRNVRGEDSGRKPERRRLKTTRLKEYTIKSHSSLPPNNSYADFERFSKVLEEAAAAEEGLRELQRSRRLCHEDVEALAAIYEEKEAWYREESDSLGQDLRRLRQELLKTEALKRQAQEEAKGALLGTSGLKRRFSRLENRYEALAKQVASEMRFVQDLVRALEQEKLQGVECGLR

Row | remaining activity at 1 µM (B-Raf(V599E)(h)) | remaining activity at 1 µM (CDK1/cyclinB(h)) | remaining activity at 1 µM (CHK1(h)) | remaining activity at 1 µM (CK1γ3(h)) | remaining activity at 1 µM (EGFR(L861Q)(h)) | remaining activity at 1 µM (EGFR(h)) | remaining activity at 1 µM (EphA7(h)) | remaining activity at 1 µM (FGFR1(h)) | remaining activity at 1 µM (Fes(h)) | remaining activity at 1 µM (IGF-1R(h)) | remaining activity at 1 µM (MELK(h)) | remaining activity at 1 µM (Mer(h)) | remaining activity at 1 µM (Yes(h)) | remaining activity at 1 µM (ZIPK(h)) | SMILES
1 | 67% | 97% | 85% | 95% | 69% | 98% | 99% | 109% | 49% | 115% | 91% | 97% | 99% | 93% | CONC(=O)c1ccccc1Nc1cc(Nc2cc(C)nn2C(C)C)ncc1Cl [GSK2256098]
2 | 89% | 14% | 58% | 84% | 128% | 105% | 41% | 43% | 7% | 55% | 9% | 7% | 56% | 97% | CNC(=O)c1ccc(Nc2ncc(C(F)(F)F)c(NCc3nccnc3N(C)S(C)(=O)=O)n2)cc1 [VS-6063, Defactinib]

Row | SMILES | remaining activity at 1 µM (B-Raf(V599E)(h)) | remaining activity at 1 µM (CDK1/cyclinB(h)) | remaining activity at 1 µM (CHK1(h)) | remaining activity at 1 µM (CK1γ3(h)) | remaining activity at 1 µM (EGFR(L861Q)(h)) | remaining activity at 1 µM (EGFR(h)) | remaining activity at 1 µM (EphA7(h)) | remaining activity at 1 µM (FGFR1(h)) | remaining activity at 1 µM (Fes(h)) | remaining activity at 1 µM (IGF-1R(h)) | remaining activity at 1 µM (MELK(h)) | remaining activity at 1 µM (Mer(h)) | remaining activity at 1 µM (Yes(h)) | remaining activity at 1 µM (ZIPK(h))
3 | CNC(=O)c1cccc(C)c1Nc1nc(Nc2ccc(N3CCN(C4C5CC6CC4CC(O)(C6)C5)CC3)cc2OC)ncc1C(F)(F)F (stereo not drawn) [SJP1602, 2-((2-((4-(4-((2s,5r)-5-hydroxyadamantan-2-yl)piperazin-1-yl)-2-methoxyphenyl)amino)-5-(trifluoromethyl)pyrimidin-4-yl)amino)-N,3-dimethylbenzamide] | 105% | 88% | 62% | 88% | 120% | 112% | 103% | 111% | 54% | 116% | 74% | 60% | 84% | 100%

Reference: paper PMC10528299, “Targeting FAK/PYK2 with SJP1602 for Anti-Tumor Activity in Triple-Negative Breast Cancer” (Current Issues in Molecular Biology, 2023)
